# US11730714B2, “Compounds for the treatment of neuromuscular disorders” (NMD PHARMA A/S, priority 2017, dated 2023)
# Experiments:
# [1] = tested on: isolated rat soleus muscles; experiment: Recovery of nerve-stimulated force in isolated rat soleus muscles exposed to sub-maximal tubocurarine; assay type: cell-based; conditions: change in AUC vs AUC after 40 min in tubocurarine before addition
# Method: Experiments were performed using rat soleus muscles from either young (4-wk-old) or adult Wistar rats (12-14-week-old). Animal handling, killing and isolation of muscle is described elsewhere All experiments were performed using normal Krebs-Ringer bicarbonate solution (NKR). In solutions with elevated Mg^2+, MgCl2 was added to NKR-solution causing minor increases in osmolarity and ionic strength. In solutions with elevated K^+, 4 mM NaCl was replaced by 4 mM KCl in the NKR.
# In all contraction experiments, isometric force production was determined and force produced during contractions was quantified by measuring the integral of the force response (AUC). Stimulation and force recordings have been described elsewhere. […] In these latter experiments, extracellular recordings of action potentials (M-waves) could be measured without temporal overlap with stimulation artefacts.
# The aim was to find compounds that by inhibition of CIC-1 channels can recover nerve-stimulated force under conditions of fatigue including conditions where fatigue is caused by compromised neuromuscular transmission. Neuromuscular transmission dysfunction can develop because of both pre- and/or post-synaptic complications in connection with a disorder or as part of neuromuscular blockade during/after surgery. In the initial series of drug testing, experiments were performed with isolated muscles in the presence of sub-maximal ACh receptor antagonist tubocurarine. Since the inclusion of tubocurarine caused a partial loss of neuromuscular transmission this experiment mimics the conditions in myasthenia gravis and neuromuscular blockade. To mimic conditions with pre-synaptic complication (Lambert Eaton syndrome, motor neuron disorder, polyneuropathy) the intact nerve-muscle preparations were incubated at elevated extracellular Mg^2+, which is known to suppress release of ACh from nerve terminals of motor neurons.
# The experiments also illustrate that field stimulation of the entire nerve-muscle preparation selectively activates the motor nerve when short-duration pulses (0.02 vs 0.2 ms) were used. In FIG. 1A the preparation was stimulated either via field stimulation or via nerve-stimulation using a suction electrode. With the suction electrode only the nerve could be stimulated. When exposed to a submaximal concentration of the ACh receptor antagonist tubocurarine (0.2 μM) a clear drop in peak force and a further decline (or fade) in force during the stimulation developed. This drop in force clearly reflected compromised neuromuscular transmission, as the decline in peak force and fading were not seen with direct stimulation of the muscle. […] Thus, loss of M-wave and force with tubocurarine reflected partial blockade of neuromuscular function. Such fading of force and M-waves during stimulation represent clinical hallmarks of both myasthenia gravis and neuromuscular blockade in connection with surgery. In FIG. 1B, observations with normal (0.2 ms) and short-duration (0.02 ms) pulses have been compared. It can be seen that only with short-duration pulses did tubocurarine cause a decline in peak force and fading (FIG. 1B). This confirms that short-duration pulses in field stimulation could be used as specific nerve-stimulation. […] Elevated extracellular Mg^2+ could thus be used to partially block neuromuscular transmission and thus be used as a model of conditions with compromised pre-synaptic function (Lambert Eaton syndrome, amyotrophic lateral sclerosis, spinal muscular atrophy). […]
# rats injected with MAB35 = experiment: Rotarod running performance in passive myasthenia gravis induced in rats with MAB35 antibody; assay type: in vivo, rat; conditions: after stable reduction in performance by MAB35, vs sham
# Method: FIG. 10. […] Prior to I.P. injection of MAB35 the animals had been familiarized to the rotarod over three training sessions distributed over two days. […] After this treatment performance was monitored every second hour. *Indicates significant different as evaluated using student t-test.
# In both series of experiments, running performance was tested on a rotarod using a protocol where the rod was accelerated gradually over a 5 min period, and the running time and covered distance before falling off the rod were measured. […] Experiments with tubocurarine were carried out over two days, and on each day the effect of tubocurarine on running performance was tested. On the first day only tubocurarine was injected. […] On the second day, the animals were first allowed to run on the rotarod, and all animals performed normally. […] The allocation of the animals into the two groups (C8 or sham) was random and unknown to the experimenter (blinded experimental design).
# In experiments with MAB35, animals were first familiarized with the rotarod over two consecutive days and then injected I.P. with MAB35. After injection, rotarod performance was then again monitored regularly over the consecutive two days. […] A considerable number of animals, however, became moribund failing to walk and they had altered ventilation (rapid) and pronounced ptosis. These animals were not included in experiments. […]
# Lewis rats = experiment: In situ muscle contractile characteristics: isometric hindlimb force in rats under Cisatracurium infusion; assay type: in vivo, rat; conditions: 20 mg/kg i.v.
# Method: Isometric hindlimb force was measured in 12-week old female Lewis rats in the presence and absence of compound.
# Rats were placed under anesthesia with isoflurane (2-4%), intubated and subsequently connected to a micro ventilator (Microvent 1, Hallowell EMC, US). Two stimulation electrodes were inserted through the skin to stimulate the sciatic nerve. A small incision was made proximal to the ankle, to expose the Achilles tendon, which was tied by cotton string, and connected to a force transducer (Fort250, World Precision Instruments) with adjustable position (Vernier control). The Achilles tendon was then cut distal to the attached cotton string. […]
# Muscle contractile properties were assessed by applying an electrical current (under supramaximal voltage conditions) to the nerve and recording the force generated by the muscle. The muscle was stretched until maximal force was obtained, when assessed by 2 Hz stimulation. Isometric force was measured every 30 seconds at 12 Hz (Twitch), 10 pulses, and at every 5 minutes at 80 Hz (Tetanic) for 1 second (80 pulses). […] The effect of test article was assessed on its ability to increase force generated from the stimulation pattern applied. The effect was assessed in the ability to increase force per se (tetanic, 80 Hz, stimulation), and the ratio between individual twitch peaks (12 Hz stimulation). […]
Compound,"50 μM % change after addition (AUC of nerve-stimulated force) ([1]; 50 μM compound, AUC related to force prior to tubocurarine) [%]",150 μM % change after addition (AUC of nerve-stimulated force) ([1]; 150 μM compound) [%],rotarod performance after injection (rats injected with MAB35; C8 20 mg/kg),rotarod performance after injection (rats injected with MAB35; C8 30 mg/kg),average increase in twitch peaks (Lewis rats; 12 Hz stimulation) [%],average increase in tetanic force (Lewis rats; 80 Hz stimulation) [%]
"C[C@H](Oc1ccc(Br)cc1)C(=O)O [Compound C8, (2S)-2-(4-bromophenoxy)propanoic acid]",16,23,decline was reduced,clear recovery of performance,,
(2S)-2-(4-bromophenoxy)(2-^2H)butanoic acid [Compound A-60],,,,,18.5,52.7
